According to patent publication US8951340B2, “Water-insoluble coloring matter compound, ink using the water-insoluble coloring matter compound, thermal transfer recording sheet and resist composition for color filter” (Canon Kabushiki Kaisha, priority 2011, dated 2015):
Read-outs that look alike come from different tables or passages of the source.

How the values were obtained:
[1] = Evaluation of solubility of compound for solvent (30 mg in 0.7 mL, visually observed); type: physicochemical; conditions: organic solvent or mixture, thermodynamic from solid, room temperature, visual
Experimental: 30 mg of each of water-insoluble coloring matter compounds (1), (4), (6), (8) to (10), (14), (15), (20), and (21) and comparative compounds (1) to (3) was dissolved at room temperature in 0.7 mL of toluene, 0.7 mL of methanol, 0.7 mL of ethyl acetate, and 0.7 mL of chloroform, respectively. These solutions were visually observed, and the solubility of the compound for the solvent was evaluated.
A: completely dissolved (solubility is very good)
B: slightly suspended (solubility is good)
C: not dissolved at all (solubility is bad)

[2] = Solubility in water of the compound at room temperature and at 60° C.; type: physicochemical; conditions: mass percentage
Source text: The water-insoluble coloring matter compound represented by the formula (1) according to the present invention has high affinity for an organic solvent. In the present invention, “water-insoluble” means that solubility in water is less than 1% in terms of mass percentage.

[3] = 30 mg in 0.7 mL chloroform, read-out: Solubility Chloroform
[4] = 30 mg in 0.7 mL ethyl acetate, read-out: Solubility Ethyl acetate
[5] = 30 mg in 0.7 mL methanol, read-out: Solubility Methanol
[6] = 30 mg in 0.7 mL toluene, read-out: Solubility Toluene

In the case of `Cn1c(=O)cc2c3c(c(Nc4ccccc4)ccc31)C(=O)c1ccccc1-2` [(1)], the solubility [1, 3] is reported as < 42.9 mg/mL, the solubility [1, 4] is reported as < 42.9 mg/mL and the solubility [1, 5] is reported as < 42.9 mg/mL. The solubility [1, 6] was < 42.9 mg/mL.

For `Cc1ccc(Nc2ccc3c4c(cc(=O)n3C)-c3ccccc3C(=O)c24)cc1` [(2)], the solubility [1, 3] was < 42.9 mg/mL, the solubility [1, 4] was < 42.9 mg/mL and the solubility [1, 5] was < 42.9 mg/mL. The solubility [1, 6] was < 42.9 mg/mL.

For `CCCCn1c(=O)c(C(=O)c2ccccc2)c2c3c(c(Nc4ccc(C)cc4)ccc31)C(=O)c1ccccc1-2` [(3)], the solubility [1, 3] was < 42.9 mg/mL, the solubility [1, 4] was < 42.9 mg/mL and the solubility [1, 5] was < 42.9 mg/mL. For the same compound, the solubility [1, 6] was < 42.9 mg/mL.

In the case of `CCCCC(CC)CNc1ccc2c3c1C(=O)c1ccccc1-c3c(C(C)=O)c(=O)n2CCCC` (stereo not drawn) [Compound (1)], the solubility in water ([2]; 60° C.) is reported as “less than 1%” and the solubility in water ([2]; room temperature) is reported as “less than 1%”.

With `CCCCC(CC)CNc1ccc2c3c1C(=O)c1ccccc1-c3c(C(=O)c1ccccc1)c(=O)n2CCCC` (stereo not drawn) [Compound (4)] the solubility in water ([2]; 60° C.) was “less than 1%” and the solubility in water ([2]; room temperature) was “less than 1%”.

With `CCCCC(CC)CNc1ccc2c3c1C(=O)c1ccccc1-c3c(C(=O)c1ccc(OC)cc1)c(=O)n2CCCC` (stereo not drawn) [Compound (6)] the solubility in water ([2]; 60° C.) was “less than 1%” and the solubility in water ([2]; room temperature) was “less than 1%”.

For `CCCCC(CC)CNc1ccc2c3c1C(=O)c1ccccc1-c3c(C(=O)c1ccccc1)c(=O)n2CC(CC)CCCC` (stereo not drawn) [Compound (8)], the solubility in water ([2]; 60° C.) was “less than 1%” and the solubility in water ([2]; room temperature) was “less than 1%”.

For `CCCCC(CC)CNc1ccc2c3c1C(=O)c1ccccc1-c3c(C(=O)OCC)c(=O)n2CC(CC)CCCC` (stereo not drawn) [Compound (9)], the solubility in water ([2]; 60° C.) was “less than 1%” and the solubility in water ([2]; room temperature) was “less than 1%”.

For `CCCCOCCCNc1ccc2c3c1C(=O)c1ccccc1-c3c(C(=O)c1ccccc1)c(=O)n2CC(CC)CCCC` (stereo not drawn) [Compound (10)], the solubility in water ([2]; 60° C.) was “less than 1%” and the solubility in water ([2]; room temperature) was “less than 1%”.

With `CCCCC(CC)CNc1ccc2c3c1C(=O)c1ccccc1-c3c(C(=O)c1ccccc1)c(=O)n2C` (stereo not drawn) [Compound (14)] the solubility in water ([2]; 60° C.) was “less than 1%” and the solubility in water ([2]; room temperature) was “less than 1%”.

With `CCCCC(CC)Cn1c(=O)c(C(=O)c2ccccc2)c2c3c(c(NC4CCCCC4)ccc31)C(=O)c1ccccc1-2` (stereo not drawn) [Compound (15)] the solubility in water ([2]; 60° C.) was “less than 1%” and the solubility in water ([2]; room temperature) was “less than 1%”.

With `CCCCNc1ccc2c3c1C(=O)c1ccccc1-c3c(C(=O)c1ccccc1)c(=O)n2CCCC` [Compound (21)] the solubility in water ([2]; 60° C.) was “less than 1%” and the solubility in water ([2]; room temperature) was “less than 1%”.
